Structures can show the parent of a compound that is named as a salt.
Legend:
[1] = tested on: nerve cells in the hippocampus CA1 region; assay: rat model for revascularization of vertebral-carotid artery occlusion (4-point ischemia), nerve cell death in hippocampus CA1; format: in vivo; details: oral once a day for 6 days
Protocol: Seven-week old Crlj:WI male rats (Charles River Laboratories Japan Inc.) were obtained, and they were provided to the experiment after being subjected to quarantine (for 5 days) and acclimatization (for 7 days or more). Throughout the experimentation period, the rats were bred in a breeding chamber maintained under a light-dark cycle (light period under room light: 6:00 AM to 6:00 PM), at a temperature of 23±3° C. and a humidity of 55±15%, and were allowed to freely take in solid feedstuff (CRF-1; Oriental Yeast Co., Ltd.) and drinking water (tap water).
Pitavastatin and ARICEPT were each suspended in a 0.5% (w/v) aqueous solution of carboxymethylcellulose sodium (hereinafter, CMC-Na, SIGMA), and prepared just before use such that the amount of administration would be 5 mL/kg.
The day of grouping was counted as the first day of administration, and the test drug was orally administered once a day for 6 days, thus 6 times in total. The normal group and the solvent control group were administered with a 0.5% (w/v) aqueous solution of CMC-Na.
On the fifth day of administration, 35 mg/kg of pentobarbital sodium (Nembutal (registered trademark) injectable solution, Dainippon Pharmaceutical Co., Ltd.) was intraperitoneally administered to the rats excluding those in the normal group. The right and left alar foramens were exposed from the first cervical spine part under anesthesia, and the vertebral arteries were thermally solidified using a soldering iron, so as to permanently occlude the vertebral arteries on both sides. […]
The fixated brains were dehydrated, infiltrated and embedded in paraffin, and a section having a thickness 10 μm was produced from the vicinity of Bregma −3.3 mm. […] The number of nerve cells was counted using an image analyzer (Win ROOF V5.6, Mitani Corporation), and the length of CA1 was measured.
According to the following formula, the number of nerve cells per unit length was determined, and the average value and standard deviation were calculated for each group. […]

nerve cells = details: pitavastatin 3 mg/kg single administration; Non-Patent Document 9; cited from earlier work

Structure (SMILES)	number of nerve cells in the hippocampus CA1 region (cells/mm) vs solvent control group ([1]; Comparative Example 1, ARICEPT 0.5 mg/kg single administration, FIG. 2)	number of nerve cells in the hippocampus CA1 region (cells/mm) vs solvent control group ([1]; Example 1, ARICEPT 0.5 mg/kg single administration, FIG. 1)	increase in the number of nerve cells, as reported in the literature (nerve cells)	number of nerve cells in the hippocampus CA1 region (cells/mm) vs solvent control group ([1]; Example 1, pitavastatin 3 mg/kg single administration, FIG. 1)
COc1cc2c(cc1OC)C(=O)C(CC1CCN(Cc3ccccc3)CC1)C2 (stereo not shown) [ARICEPT, donepezil hydrochloride]	not significant	not significant		
O=C([O-])C[C@H](O)C[C@H](O)/C=C/c1c(C2CC2)nc2ccccc2c1-c1ccc(F)cc1.O=C([O-])C[C@H](O)C[C@H](O)/C=C/c1c(C2CC2)nc2ccccc2c1-c1ccc(F)cc1.[Ca+2] [pitavastatin, pitavastatin calcium]			presence of significant difference	not significant

Source: US7973053B2, “Nerve cell death inhibitor” (priority 2007, dated 2011)
